The target in one series is T1, human GLP-1 receptor (Homo sapiens, UniProt P43220).
T1 construct: expressed in transfected cells; host or cells: membranes of BHK cells (parent BHKTS13), clone FCW467-12A
The series is described as follows: Assay (I)(a) GLP-1 receptor activation, CRE luciferase reporter gene assay in BHK cells. It is filed as cell-based. The settings on record: without presence of serum albumin; read-out: GLP-1R EC50 (pM) [Assay (I)(a)]. The gist of the method:
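Stable BHK clone expressing human GLP-1 receptor with CRE-driven firefly luciferase, 5×10EE3 cells/well in medium with 2% ovalbumin and 0.2% Pluronic F-68. Compounds at 1×10EE-13 to 1×10EE-6 M final, 3 h at 37° C.; luminescence read, EC50 (pM) from four-parameter fit.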
Background: A reporter such as luciferase makes a cellular process visible.

The target in a further series is T2, human glucagon receptor (Homo sapiens, UniProt P47871).
T2 construct: expressed in transfected cells; host or cells: membranes of BHK cells, clone BHK hGCGR A3*25
Put plainly: Assay (I)(b) glucagon receptor activation, CRE luciferase reporter gene assay in BHK cells. The settings on record: without presence of serum albumin; read-out: GlucagonR EC50 (pM), [Assay (I)(b)]. It is filed as cell-based. As for the experimental part: The purpose of this example was to test the activity or potency, of the glucagon derivatives of the invention, in vitro. The in vitro potency is the measure of human GLP-1 receptor (GLP-1R) or glucagon receptor (glucagonR) activation, respectively, in a whole cell assay. In vitro potency was determined by measuring the response of human GLP-1 or glucagon receptor, respectively, in a reporter gene assay. The assay was performed in a stably transfected BHK cell line that expresses either the human GLP-1 receptor or the human glucagon receptor and contains the DNA for the cAMP response element (CRE) coupled to a promoter and the gene for firefly luciferase (CRE luciferase). […] When assay incubation was completed, the luciferase substrate (luciferin) was added and the enzyme converted luciferin to oxyluciferin and produces bioluminescence. The luminescence was measured as the readout for the assay. The cells used in this assay (clone pLJ6′-4-25) were BHK cells with BHK570 as a parent cell line expressing the CRE luciferase gene (clone BHK/KZ10-20-48) and were established by further transfection with the human glucagon receptor (clone pLJ6′ in pHZ-1 vector). The cells were cultured at 5% CO2 in DMEM medium with 10% FBS, 1×GlutaMAX, 1 mg/ml G418, 240 nM MTX (methotrexate) and 1% pen/strep (penicillin/streptomycin). They were aliquoted and stored in liquid nitrogen. Before each assay, an aliquot was taken up and washed three times in PBS before being suspended at the desired concentration in assay medium. For 96-well plates the suspension was made to give a final concentration of 5×10EE3 cells/well. The following chemicals were used in the assay: Pluronic F-68 (10%) (Gibco 2404), ovalbumin (Sigma A5503), DMEM w/o phenol red (Gibco 11880-028), 1 M Hepes (Gibco 15630), Glutamax 100× (Gibco 35050) and steadylite plus (PerkinElmer 6016757). Assay Medium consisted of DMEM w/o phenol red, 10 mM Hepes, 1× GlutaMAX, 2% Ovalbumin and 0.2% Pluronic F-68. Cell stocks were thawed in a 37° C. water bath. Cells were washed three times in PBS. The cells were counted and adjusted to 5×10EE3 cells/50 μl (1×10EE5 cells/ml) in Assay Medium. A 50 μl aliquot of cells was transferred to each well in the assay plate. Stocks of the test compounds and reference compounds were diluted to a concentration of […] in Assay Medium. Compounds were diluted 10-fold to give the following concentrations: 2×10EE-6 M, 2×10EE-7 M, 2×10EE-8 M; 2×10EE-9 M, 2×10EE-10 M, 2×10EE-11 M, 2×10EE-12 M and 2×10EE-13 M. For each compound a blank assay medium control was also included. A 50 μl aliquot of compound or blank was transferred from the dilution plate to the assay plate. Compounds were tested at the following final concentrations: 1×10EE-6 M, 1×10EE-7 M, 1×10EE-8 M; 1×10EE-9 M, 1×10EE-10 M, 1×10EE-11 M and 1×10EE-12 M and 1×10EE-13 M. The assay plate was incubated for 3 h in a 5% CO2 incubator at 37° C. The assay plate was removed from the incubator and allowed to stand at room temperature for 15 min. A 100 μl aliquot of steadylite plus reagent was added to each well of the assay plate (reagent is light sensitive). Each assay plate was covered with aluminum foil to protect it from light and shaken for 30 min at room temperature. Each assay plate was read in a Perkin Elmer TopCount NXT instrument. The data from the TopCount instrument was transferred to GraphPad Prism software. The software performed a non-linear regression (log(agonist) vs response-Variable slope (four parameter)). EC50 values were calculated by the software and reported in pM.

A short description of series [1]: Assay (III) ThT fibrillation assay for physical stability. It is filed as physicochemical. The note with it: 250 μM in 10 mM HEPES buffer, 37° C., shaking 960 rpm. The source says:
The purpose of this assay is to assess the physical stability of the glucagon derivatives of the invention in aqueous solutions. Low physical stability of a peptide may lead to amyloid fibril formation, which is observed as well-ordered, thread-like macromolecular structures in the sample, which eventually may lead to gel formation. This has traditionally been measured by visual inspection of the sample. However, that kind of measurement is very subjective and depending on the observer. Therefore, the application of a small molecule indicator probe is much more advantageous. Thioflavin T (ThT) is such a probe and has a distinct fluorescence signature when binding to fibrils [Naiki et al. (1989) Anal. Biochem. 177, 244-249; LeVine (1999) Methods. Enzymol. 309, 274-284]. […] The constant t0 is the time needed to reach 50% of maximum fluorescence. The two important parameters describing fibril formation are the lag-time calculated by t0−2τ and the apparent rate constant kapp 1/τ. Samples were prepared freshly before each assay. Each sample composition is described in the legends. The pH of the sample was adjusted to the desired value using appropriate amounts of concentrated NaOH and HCl. Thioflavin T was added to the samples from a stock solution in H2O to a final concentration of 1 μM. Sample aliquots of 200 μl (250 μM of the glucagon derivative in 10 mM HEPES buffer, pH 7.5) were placed in a 96 well microtiter plate (Packard OptiPlate™-96, white polystyrene). Usually, four or eight replica of each sample (corresponding to one test condition) were placed in one column of wells. The plate was sealed with Scotch Pad (Qiagen). Incubation at given temperature, shaking and measurement of the ThT fluorescence emission were done in a Fluoroskan Ascent FL fluorescence platereader (Thermo Labsystems). The temperature was adjusted to 37° C. The plate was incubated with orbital shaking adjusted to 960 rpm with an amplitude of 1 mm. Fluorescence measurement was done using excitation through a 444 nm filter and measurement of emission through a 485 nm filter. Each run was initiated by incubating the plate at the assay temperature for 10 min. The plate was measured every 20 minutes for a desired period of time. Between each measurement, the plate was shaken and heated as described. After completion of the ThT assay the four or eight replica of each sample was pooled and centrifuged at 20000 rpm for 30 minutes at 18° C. The supernatant was filtered through a 0.22 μm filter and an aliquot was transferred to a HPLC vial. The concentration of peptide in the initial sample and in the filtered supernatant was determined by reverse phase HPLC using an appropriate standard as reference. The percentage fraction the concentration of the filtered sample constituted of the initial sample concentration was reported as the recovery. The measurement points were saved in Microsoft Excel format for further processing and curve drawing and fitting was performed using GraphPad Prism. The background emission from ThT in the absence of fibrils was negligible. The data points are typically a mean of four or eight samples and shown with standard deviation error bars. Only data obtained in the same experiment (i.e. samples on the same plate) are presented in the same graph ensuring a relative measure of fibrillation between experiments. The data set may be fitted to Eq. (1).

SMILES strings stand for the structures. Starred links: 1 amine or outer side, 2 acyl side, 3 side chain; linkers in the order of their positions; H or OH if unused. Non-standard residues stand in square brackets, D forms with d. Residues, ends and D or L forms follow the SMILES beside them. Groups on a side chain read outwards from the residue. *: point of attachment. C18 diacid = O=C(O)CCCCCCCCCCCCCCCCC(=O)*; γGlu = O=C(O)[C@H](CCC(=O)[*:2])N[*:1]; AEEA = NCCOCCOCC(=O)O; Aib = CC(C)(N)C(=O)O

T1 sequence (P43220 24-463): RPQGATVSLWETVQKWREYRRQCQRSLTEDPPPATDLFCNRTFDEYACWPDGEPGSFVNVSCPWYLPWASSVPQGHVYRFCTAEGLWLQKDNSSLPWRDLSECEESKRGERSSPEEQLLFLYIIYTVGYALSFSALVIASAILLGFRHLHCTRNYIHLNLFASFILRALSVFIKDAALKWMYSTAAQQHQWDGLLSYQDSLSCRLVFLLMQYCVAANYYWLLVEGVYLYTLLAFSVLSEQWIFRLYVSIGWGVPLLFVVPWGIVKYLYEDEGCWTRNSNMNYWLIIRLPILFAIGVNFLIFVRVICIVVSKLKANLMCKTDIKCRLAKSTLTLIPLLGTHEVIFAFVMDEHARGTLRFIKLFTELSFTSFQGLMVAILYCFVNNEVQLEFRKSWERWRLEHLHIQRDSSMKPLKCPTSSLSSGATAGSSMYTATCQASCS
T2 sequence (P47871 26-477): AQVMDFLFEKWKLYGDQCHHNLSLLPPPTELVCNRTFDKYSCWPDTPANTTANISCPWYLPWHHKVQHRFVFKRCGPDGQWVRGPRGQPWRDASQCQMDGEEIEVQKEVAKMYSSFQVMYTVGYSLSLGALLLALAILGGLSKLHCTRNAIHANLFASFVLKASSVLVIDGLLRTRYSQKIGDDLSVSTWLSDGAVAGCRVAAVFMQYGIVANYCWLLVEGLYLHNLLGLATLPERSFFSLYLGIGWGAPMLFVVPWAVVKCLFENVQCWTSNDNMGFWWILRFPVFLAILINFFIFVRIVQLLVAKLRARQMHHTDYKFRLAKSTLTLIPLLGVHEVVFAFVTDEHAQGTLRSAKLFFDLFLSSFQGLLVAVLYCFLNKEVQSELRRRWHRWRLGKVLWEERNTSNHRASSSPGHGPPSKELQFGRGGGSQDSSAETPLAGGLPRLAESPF

In general, EC50 refers to the midpoint of the concentration-response curve. With `CC[C@H](C)[C@H](NC(=O)[C@H](CC(C)C)NC(=O)[C@H](Cc1c[nH]c2ccccc12)NC(=O)[C@H](CCC(N)=O)NC(=O)[C@@H](NC(=O)[C@H](Cc1ccccc1)NC(=O)[C@H](CC(=O)O)NC(=O)[C@H](CCCNC(=N)N)NC(=O)[C@H](C)NC(=O)[C@H](CCCNC(=N)N)NC(=O)[C@H](CCCNC(=N)N)NC(=O)[C@H](C)NC(=O)[C@H](CC(=O)O)NC(=O)[C@H](CC(C)C)NC(=O)[C@H](Cc1ccc(O)cc1)NC(=O)[C@H](CCCCN)NC(=O)[C@H](CO)NC(=O)[C@H](CC(C)C)NC(=O)[C@H](CC(=O)O)NC(=O)[C@H](CO)NC(=O)[C@@H](NC(=O)[C@H](Cc1ccccc1)NC(=O)[C@@H](NC(=O)CNC(=O)[C@H](CCC(N)=O)NC(=O)C(C)(C)NC(=O)[C@@H](N)Cc1c[nH]cn1)[C@@H](C)O)[C@@H](C)O)C(C)C)C(=O)N[C@@H](CCCCNC(=O)CC[C@H](NC(=O)CC[C@H](NC(=O)CC[C@H](NC(=O)CCCCCCCCCCCCCCCCC(=O)O)C(=O)O)C(=O)O)C(=O)O)C(=O)N[C@H](C(N)=O)[C@@H](C)O` [Chem. 15, N^ε28-[(4S)-4-carboxy-4-[[(4S)-4-carboxy-4-[[(4S)-4-carboxy-4-(17-carboxyheptadecanoylamino)butanoyl]amino]butanoyl]amino]butanoyl]-[Aib2,Leu10,Ala16,Arg20,Ile27,Lys28]-Glucagon amide] (HELM PEPTIDE1{H.[Aib].Q.G.T.F.T.S.D.L.S.K.Y.L.D.A.R.R.A.R.D.F.V.Q.W.L.I.K.T.[am]}|PEPTIDE2{[O=C(O)CCCCCCCCCCCCCCCCC(=O)[*:2]].[gGlu].[gGlu].[gGlu]}$PEPTIDE1,PEPTIDE2,28:R3-4:R2$$$V2.0), the EC50 at human GLP-1 receptor was found to be 4 pM; on human glucagon receptor it was 7 pM.
On to `CC[C@H](C)[C@H](NC(=O)[C@H](CC(C)C)NC(=O)[C@H](Cc1c[nH]c2ccccc12)NC(=O)[C@H](C)NC(=O)[C@@H](NC(=O)[C@H](Cc1ccccc1)NC(=O)[C@H](CC(=O)O)NC(=O)[C@H](CCCNC(=N)N)NC(=O)[C@H](C)NC(=O)[C@H](CCCNC(=N)N)NC(=O)[C@H](CCCNC(=N)N)NC(=O)[C@H](CC(C)C)NC(=O)[C@H](CC(=O)O)NC(=O)[C@H](CC(C)C)NC(=O)[C@H](Cc1ccc(O)cc1)NC(=O)[C@H](CCCCN)NC(=O)[C@H](CO)NC(=O)[C@H](Cc1ccc(O)cc1)NC(=O)[C@H](CC(=O)O)NC(=O)[C@H](CO)NC(=O)[C@@H](NC(=O)[C@H](Cc1ccccc1)NC(=O)[C@@H](NC(=O)CNC(=O)[C@H](CCC(N)=O)NC(=O)C(C)(C)NC(=O)[C@@H](N)Cc1c[nH]cn1)[C@@H](C)O)[C@@H](C)O)C(C)C)C(=O)N[C@@H](CCCCNC(=O)CC[C@H](NC(=O)CC[C@H](NC(=O)COCCOCCNC(=O)COCCOCCNC(=O)CC[C@H](NC(=O)CCCCCCCCCCCCCCCCC(=O)O)C(=O)O)C(=O)O)C(=O)O)C(=O)N[C@H](C(N)=O)[C@@H](C)O` [Chem. 33, N^ε28-[(4S)-4-carboxy-4-[[(4S)-4-carboxy-4-[[2-[2-[2-[[2-[2-[2-[[(4S)-4-carboxy-4-(17-carboxyheptadecanoylamino)butanoyl]amino]ethoxy]ethoxy]acetyl]amino]ethoxy]ethoxy]acetyl]amino]butanoyl]amino]butanoyl]-[Aib2,Leu16,Arg20,Ala24,Ile27,Lys28]-Glucagon amide] (H-H[Aib]QGTFTSDYSKYLDLRRARDFVAWLIK([γGlu-γGlu-AEEA-AEEA-γGlu-C18 diacid])T-NH2), for which the “ThT Assay Lag time (h) [Assay (III), pH 7.5]” value in series [1] was 45.0 h. Also, the EC50 on human GLP-1 receptor was found to be 7 pM.

(Values after patent US10570184B2, “GLP-1/glucagon receptor co-agonists for medical use” (Novo Nordisk A/S, priority 2014, dated 2020).)
